Measured values taken from patent US5629289A, “Cyclic peptide antifungal agents” (Eli Lilly and Company, priority 1995, dated 1997).
Converted amounts (≈) assume the structure as drawn. *1 amine or outer side, *2 acyl side, *3 side chain or, on linkers, in order; H or OH if unused. Where a SMILES comes first, the peptide text is derived from it. Bridges are numbered along the chain shown (N, C = ends). [ ]: non-standard residue; d: D form. The star is where a group is joined. ξ: configuration not given here. pTerphenylCO(4''-OnC5H11) = CCCCCOc1ccc(-c2ccc(-c3ccc(C(=O)*)cc3)cc2)cc1; ξOrn(4ξ-OH) = O=C(C(CC(O)CN[*:3])N[*:1])[*:2]; ξhTyr(βOH) = NC(C(=O)O)C(O)Cc1ccc(O)cc1; ξPro(3ξ-OH,4ξ-Me) = CC1CNC(C(=O)O)C1O; ξHyp = O=C(O)C1CC(O)CN1

Test system: C. albicans
Assay type: cell-based
Method: Antifungal activity of a test compound is determined in vitro by obtaining the minimum inhibitory concentration (MIC) of the compound using a standard agar dilution test or a disc-diffusion test. The compound is then tested in vivo (in mice) to determine the effective dose of the test compound for controlling a systemic fungal infection. Accordingly, the compound prepared in Example 1C was tested for antifungal activity against C. albicans.

minimal inhibitory concentration (MIC) against C. albicans: 0.312 µg/mL (≈ 0.306 µM)
Compound: CCCCCOc1ccc(-c2ccc(-c3ccc(C(=O)NC4CC(O)CNC(=O)C5C(O)C(C)CN5C(=O)CNC(=O)C(C(O)Cc5ccc(O)cc5)NC(=O)C5CC(O)CN5C(=O)CNC4=O)cc3)cc2)cc1 (stereo not shown) [Example 1C] ({pTerphenylCO(4''-OnC5H11)}-[ξOrn(4ξ-OH)]G[ξHyp][ξhTyr(βOH)]G[ξPro(3ξ-OH,4ξ-Me)]; lactam 1-C)
